Structures can show the parent of a compound that is named as a salt. Where two headings read alike, the source gives them in different places.
How the values were obtained:
[1] = depending on the dosage form; reported, ref not given; cited from earlier work
[2] = Determination of SQR solubility in oils, surfactants and co-surfactants; format: physicochemical; conditions: ethanol
[3] = cited from earlier work

solubility at 72 h [2]: 126 mg/mL
Structure (SMILES): CC(C)(C)NC(=O)[C@@H]1C[C@@H]2CCCC[C@@H]2CN1C[C@@H](O)[C@H](Cc1ccccc1)NC(=O)[C@H](CC(N)=O)NC(=O)c1ccc2ccccc2n1 [SQR, Saquinavir mesylate]
oral bioavailability [1]: 0.7–4.0%
aqueous solubility ([3]; pH of 6.5): 73 mg/L
aqueous solubility ([3]; pH of 7.4): 36 mg/L
